Measurements: patent US20240173375A1, “CHEMOTACTIC AUTOPHAGY-INHIBITING PEPTIDE, COMPOSITIONS AND METHODS RELATED THERETO” (Biotempt B.V., priority 2021, published 2024)
Where two headings read alike, the source gives them in different places. No end group written: not given here.

Columns and labels:
autophagy = details: cited from earlier work; for inhibitory effects on autophagy: human cells (Meijer et al. 2015)
mTOR kinases = details: cited from earlier work; for activators of mTOR or inhibitors of autophagy, compared with other amino acids: alone or in combination, literature search November 2011
p38 MAPK = test: FPR-signaling assay: p38 MAPK phosphorylation in FPR-expressing cells stimulated with fMLP; type: cell-based
Text: (§1) Both AQGV (SEQ ID NO:11) peptide effects on p38 and PKB-mediated signalling last for the full 600 seconds tested whereas the other kinases tested were not affected throughout. […] The pathway is governing the balance between proteolysis and proteogenesis regulating cytoskeleton changes affecting vascular permeability. It is shown that an autophagy-inhibiting peptide reduces p38 MAPK kinase activated changes as well as reduces PI3K/AKT/mTOR activated induced changes in cell cytoskeleton reorganization affecting endothelial cell contraction and adverse vascular permeability. Autophagy-inhibiting peptide is useful and capable of addressing adverse vascular permeability, such as manifested by edema with vascular leakage, adverse leukocyte extravasation and hypotension, tissue injury and immune responses in human subjects.

[1] = system: STAT3, JNK and P42/p44MAPK/ERK1,2 kinases; test: FPR-signaling assay: STAT3, JNK and P42/p44MAPK/ERK1,2 phosphorylation in FPR-expressing cells; type: cell-based
Text: as §1

PKB (also known as AKT) = test: FPR-signaling assay: PKB (AKT) phosphorylation in FPR-expressing cells stimulated with fMLP; type: cell-based
Text: The pathway is governing the balance between proteolysis and proteogenesis regulating cytoskeleton changes affecting vascular permeability.

[2] = 50 mg/kg twice daily i.p.; cited from earlier work
[3] = cited from earlier work
[4] = cited from earlier work; remark: listed apart in the source
CXCR4 = target: T1, CXCR4 (Homo sapiens, UniProt P61073); details: cited from earlier work; for agonist behaviour in chemotaxis: CCRF-CEM cell line
T1 construct: In chemotaxis assays using the acute lymphoblastic leukemia cell line CCRF-CEM; endogenous in cells; host or cells: CCRF-CEM

neutrophil = details: cited from earlier work
[5] = Distribution and elimination of intravenously injected [14C]-AQGV from mice; type: in vivo
Method: The present study, which was conducted by TNO Biosciences, Utrechtseweg, Netherlands, was designed to provide data on the distribution and metabolism of [14C]-AQGV (SEQ ID NO:11) (Ala-Gln-[1-^14C]Gly-Val) in male CD-1 mice following a single intravenous dose of 50 mg/kg. To this end, mice were sacrificed at 10, 30 and 60 minutes, and 6 and 24 hours after administration of radiolabeled AQGV (SEQ ID NO:11), counts in various tissues were determined, and the radioactivity present in the urine and plasma were analyzed by HPLC.

[6] = cited from earlier work; remark: listed apart in the source
guinea pig skin = details: internal standard […]; cited from earlier work

T1 sequence (P61073 whole entry): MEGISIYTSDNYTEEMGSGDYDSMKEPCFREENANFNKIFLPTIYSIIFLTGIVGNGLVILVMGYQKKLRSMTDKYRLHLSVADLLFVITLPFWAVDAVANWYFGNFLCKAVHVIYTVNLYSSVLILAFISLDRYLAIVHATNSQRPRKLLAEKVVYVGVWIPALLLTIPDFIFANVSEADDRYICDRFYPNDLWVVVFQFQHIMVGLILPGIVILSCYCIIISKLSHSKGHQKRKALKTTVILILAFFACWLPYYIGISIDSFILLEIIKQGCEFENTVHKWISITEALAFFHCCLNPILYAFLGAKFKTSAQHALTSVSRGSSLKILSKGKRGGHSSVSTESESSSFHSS

C[C@H](N)C(=O)O [L-Alanine]
Literature-based activity: autophagy (autophagy): DOWN | inhibitory effects on autophagy (autophagy): most prominent | activators of mTOR or inhibitors of autophagy, compared with other amino acids (mTOR kinases): more potent

N=C(N)NCCC[C@H](N)C(=O)O [L-Arginine]
Literature-based activity: autophagy (autophagy): DOWN | activators of mTOR or inhibitors of autophagy, compared with other amino acids (mTOR kinases): more potent | Literature-based activity: mTOR kinases (mTOR kinases): activate

NC(=O)CC[C@H](N)C(=O)O [L-Glutamine]
Literature-based activity: autophagy (autophagy): DOWN | inhibitory effects on autophagy (autophagy): most prominent | activators of mTOR or inhibitors of autophagy, compared with other amino acids (mTOR kinases): more potent | Literature-based activity: mTOR kinases (mTOR kinases): activate

NCC(=O)O [L-Glycine]
Literature-based activity: autophagy (autophagy): DOWN | activators of mTOR or inhibitors of autophagy, compared with other amino acids (mTOR kinases): more potent

N[C@@H](Cc1c[nH]cn1)C(=O)O [L-Histidine]
Literature-based activity: mTOR kinases (mTOR kinases): down

CC[C@H](C)[C@H](N)C(=O)O [L-Isoleucine]
Literature-based activity: autophagy (autophagy): DOWN | activators of mTOR or inhibitors of autophagy, compared with other amino acids (mTOR kinases): more potent | Literature-based activity: mTOR kinases (mTOR kinases): activate

CC(C)C[C@H](N)C(=O)O [L-Leucine]
Literature-based activity: autophagy (autophagy): DOWN | inhibitory effects on autophagy (autophagy): most prominent | activators of mTOR or inhibitors of autophagy, compared with other amino acids (mTOR kinases): more potent | Literature-based activity: mTOR kinases (mTOR kinases): activate

NCCCC[C@H](N)C(=O)O [L-Lysine]
activators of mTOR or inhibitors of autophagy, compared with other amino acids (mTOR kinases): no or opposite effects | Literature-based activity: mTOR kinases (mTOR kinases): down

CSCC[C@H](N)C(=O)O [L-Methionine]
activators of mTOR or inhibitors of autophagy, compared with other amino acids (mTOR kinases): no or opposite effects | Literature-based activity: mTOR kinases (mTOR kinases): partial inhibit

O=C(O)[C@@H]1CCCN1 [L-Proline]
inhibitory effects on autophagy (autophagy): most prominent | activators of mTOR or inhibitors of autophagy, compared with other amino acids (mTOR kinases): more potent | Literature-based activity: mTOR kinases (mTOR kinases): activate

C[C@@H](O)[C@H](N)C(=O)O [L-Threonine]
activators of mTOR or inhibitors of autophagy, compared with other amino acids (mTOR kinases): no or opposite effects | Literature-based activity: mTOR kinases (mTOR kinases): down

CC(C)[C@H](N)C(=O)O [L-Valine]
activators of mTOR or inhibitors of autophagy, compared with other amino acids (mTOR kinases): more potent | Literature-based activity: mTOR kinases (mTOR kinases): activate

CSCC[C@H](NC=O)C(=O)N[C@@H](CC(C)C)C(=O)N[C@@H](Cc1ccccc1)C(=O)O [fMLP, N-Formyl-L-methionyl-L-leucyl-L-phenylalanine, reference compound]
changes in phosphorylation status of p38 MAPK on FPR-activation (p38 MAPK; FPR-expressing cells, p<0.05 from 60 to 600 seconds): significant | changes in phosphorylation status of STAT3, JNK and P42/p44MAPK/ERK1,2 on FPR-activation ([1]; FPR-expressing cells): not (or not detectable) | changes in phosphorylation status of PKB (AKT) on FPR-activation (PKB (also known as AKT); FPR-expressing cells, p<0.05 at 600 seconds): significant

N[C@@H](CCC(=O)O)C(=O)O [glutamate, L-Glutamic Acid]
activators of mTOR or inhibitors of autophagy, compared with other amino acids (mTOR kinases): no or opposite effects

N[C@@H](Cc1ccccc1)C(=O)O [phenylalanine, L-Phenylalanine]
activators of mTOR or inhibitors of autophagy, compared with other amino acids (mTOR kinases): no or opposite effects

N[C@@H](CO)C(=O)O [serine, L-Serine]
activators of mTOR or inhibitors of autophagy, compared with other amino acids (mTOR kinases): no or opposite effects

N[C@@H](Cc1ccc(O)cc1)C(=O)O [tyrosine, L-Tyrosine]
activators of mTOR or inhibitors of autophagy, compared with other amino acids (mTOR kinases): no or opposite effects

AQGV (tetrapeptide)
effect on p38/p38-MK2-HSP27 and/or PI3K/AKT/mTOR pathways (p38 MAPK; formyl-peptide related signaling): attenuate | duration of peptide effects on p38-mediated signalling (p38 MAPK; full period tested): 600 s | time at which peptide effects on p38 MAPK are detected after FPR-stimulation (p38 MAPK; peptide at 20 ng/ml or 50 ng/ml, fMLP stimulation): 30 s | peptide effect on the other kinases tested ([1]; throughout 600 seconds): not affected | renal function and allograft survival [2]: improved | endotoxin induced increase in plasma levels of cytokines and adhesion molecule VCAM-1 ([3]; 180 mg/kg (the highest dose)): significant attenuation | fever and flu-like symptoms ([3]; the highest dose): reduced | survival ([4]; 20-50 mg/kg twice daily i.p. for four days, started 24 hours after IRI, dose dependent): markedly improved | CTGF up-regulation, marker of post-ischemic fibrosis ([4]; four weeks after IRI, renal tissue): significantly less | tubular epithelial cell proliferation ([4]; mouse, in vivo): significantly enhanced | acute tubular injury ([4]; two days after IRI): diminished | time at which peptide effects on PKB(AKT) follow after FPR-stimulation (PKB (also known as AKT); bi-phasic pattern, peptide at 20 ng/ml or 50 ng/ml, fMLP stimulation): 300 s | duration of peptide effects on PKB-mediated signalling (PKB (also known as AKT); full period tested): 600 s

ASLW (CXCR4 superagonist) [peptide agonist of CXCR4]
agonist behaviour in chemotaxis (CXCR4): superagonist | sensitivity to the CXCR4 antagonist AMD3100 (CXCR4): insensitive

Acetyl-proline-glycine-proline [AcPGP]
concentration level at which the chemoattractant operates (neutrophil; ELR+ CXC chemokines are functional at nanomolar levels): micromolar level

Ala-Gln-[1-^14C]Gly-Val (AQGV; also: 14C label at C1 of Gly ([1-14C]Gly)) [[14C]-AQGV]
average total recovery of radioactivity ([5]; 10 minutes after dose administration): 83.2% | average total recovery of radioactivity ([5]; 30 minutes after dose administration): 70.5% | average total recovery of radioactivity ([5]; 60 minutes after dose administration): 62.9% | average total recovery of radioactivity ([5]; 6 hours after dose administration): 52.6% | average total recovery of radioactivity ([5]; 24 hours after dose administration): 50.8% | administered radioactivity excreted in feces ([5]; after 24 hours): 2.6% | administered radioactivity excreted in urine ([5]; after 24 hours): 10.2% | radioactivity in the blood, amount if all counts were in intact peptide ([5]; blood, 10 minutes after single i.v. dose of 50 mg/kg): 17.2 µg/g | concentration of "peptide" (radioactivity) ([5]; kidneys, after 10 minutes): 362 µg/g | concentration of "peptide" (radioactivity) ([5]; kidneys, after 24 hours): 61.9 µg/g | concentration of "peptide" (radioactivity) ([5]; liver, after 10 minutes): 105 µg/g | concentration of "peptide" (radioactivity) ([5]; liver, after 24 hours): 37.6 µg/g | concentration of "peptide" (radioactivity) ([5]; lung, after 10 minutes): 75.2 µg/g | time to full hydrolysis of the peptide after administration ([5]; mice): 15 min | parent compound in plasma (HPLC) ([5]; plasma, after 10 minutes, 50 mg/kg i.v.): No parent compound could be detected | concentration of "peptide" (radioactivity) ([5]; skin, after 24 hours): 37.5 µg/g | concentration of "peptide" (radioactivity) ([5]; spleen, after 10 minutes): 74.7 µg/g | concentration of "peptide" (radioactivity) ([5]; spleen, after 24 hours): 39.3 µg/g | concentration of "peptide" (radioactivity) ([5]; testis, after 10 minutes): 85.7 µg/g | concentration of "peptide" (radioactivity) ([5]; thymus, after 24 hours): 43.1 µg/g | administered radioactivity exhaled as volatiles, most likely 14C-CO2 ([5]; up to 24 hours): About 50% | parent compound in urine (HPLC) ([5]; urine, 50 mg/kg i.v.): No parent compound was detected

LQGV (tetrapeptide) [tetrapeptide, sister compound of AQGV]
survival ([6]; 5 mg/kg bodyweight combined with fluid resuscitation and antibiotics, severe cecal ligation and puncture, 30% without peptide): 70% | survival ([6]; 5 mg/kg bodyweight, first 5 days after moderate cecal ligation and puncture, 20% without): 50% | pulmonary nuclear factor-κB activation and pulmonary damage ([6]; mouse, in vivo): reduced | cytokine and E-selectin levels ([6]; peritoneal lavage fluid, lungs, to a lesser extent plasma): reduced

Pro-Gly-Pro [PGP]
potency in evoking neutrophil chemotaxis, less than AcPGP (neutrophil; unacetylated versus acetylated peptide): 4-7 fold

RSVM (CXCR4 partial agonist) [peptide agonist of CXCR4]
agonist behaviour in chemotaxis (CXCR4): partial agonist | sensitivity to the CXCR4 antagonist AMD3100 (CXCR4): insensitive

acyl-YSFKPMPLaR (YSFKPMPLXR; N-acetyl; D-Ala; chemoattractant motif; MOD_RES (1)..(1) …ON; VARIANT (9)..(9) is D-ala) [conformationally constrained decapeptide agonist analog of C5a65-74]
potency relative to unconstrained analog […] (guinea pig skin): at least 10 fold
